One series addresses Fes (Homo sapiens, UniProt P07332). The series is described as follows: Kinase inhibition assay (LANCE or HTRF). The format is biochemical. The settings on record: ATP at Km.
A further series concerns the target Fer (Homo sapiens, UniProt P16591). Kind of series: Kinase inhibition assay (LANCE or HTRF). The format is biochemical. Conditions: ATP at Km.
The target of another series is Fgr (Homo sapiens, UniProt P09769). Kind of series: Kinase inhibition assay (LANCE or HTRF). In kind it is biochemical. The settings on record: ATP at Km.
The target in the next series is PDGFRα (Homo sapiens, UniProt P16234). Kind of series: Kinase inhibition assay (LANCE or HTRF). The format is biochemical. Conditions: ATP at Km.
Another series has as its target AXL (Homo sapiens, UniProt P30530). The series is described as follows: cell-based. How it is done: Phosphorylation of the receptors MET, AXL, VEGFR2, and FLT3 was assessed in the transgenic human MKN45 gastric tumor cell line overexpressing MET, mouse embryonic fibroblasts (MEFs) expressing full-length human AXL (AXL-MEFs), human umbilical vein endothelial cells (HUVECs) […], and MEFs expressing full-length human FLT3 (FLT3-wt-MEFs), respectively. […] Then, HUVECs and FLT3-wt-MEFs were stimulated with the ligands VEGF-A (100 ng/ml, for 3 min) and FLT3-ligand (50 ng/ml, for 5 min). MKN45 (overexpressing MET) and AXL-MEFs cells had no stimulation. Cells treated with staurosporine (AXL, FLT3-wt, c-Kit, FLT3, TIE2, VEGF-R2; [1,0E-05 M]) or BMS777607 (MET; [1,0E-06 M]) or sunitinib (VEGF-R3; [1,0E-06 M]) or crizotinib (RON; [1,0E-05 M] were defined as low control (n = 8). The median value of those wells represented the background and was set to 0%. Cells treated with solvent alone were defined as high control (n = 8). The median value of those wells was set to 100%. Test sample-treated cells as well as high and low control were stimulated in identical manner. Quantification of receptor tyrosine kinase autophosphorylation was assessed in 96-well plates via sandwich ELISA using a receptor specific capture antibody and an anti-phosphotyrosine detection antibody. […]

Another series deals with HS746T. The series is described as follows: Cell proliferation assay (CellTiter-Glo, 72 hours). Conditions: Homo sapiens, read-out: IC50 anti-proliferative. The format is cell-based.
The test system of a further series is MKN74. Kind of series: Cell proliferation assay (CellTiter-Glo, 72 hours). In kind it is cell-based. The settings on record: Homo sapiens, MKN-74, read-out: IC50 anti-proliferative.
Another series deals with AKT phosphorylation. Kind of series: Western blot of signaling molecules in SNU-5 cells. In kind it is cell-based, human. The text has this: (§1) The SNU-5 cell line was selected for western blotting analysis of signaling molecules. […] Immunoreactive proteins (p-AXL, t-ERK and p-ERK) were visualized using the ECL system (Pierce Chemical, TX, USA). Other proteins were detected by Odyssey (LI-COR, NE, USA) at a wavelength of 700 nm or 800 nm. […] Tumor lysates were subjected to western blotting. The following antibodies were purchased from Cell Signaling Technology (Cell Signaling Technology Cat#3148, RRID : AB_1031042): anti-MET (Cell Signaling Technology Cat# 3148, RRID : AB_1031042), anti-p-MET Y1234/1235 (Antibodies-Online Cat# ABIN461461, RRID : AB_10786128), anti-AXL (Cell Signaling Technology Cat# 4566, RRID : AB_2062563), anti-p-AXL Y702 (5724S), anti-ERK (9107S), anti-p-ERK Thr202/Tyr204 (4370S), anti-p-AKT Ser473 (4060S), and anti-AKT (Cell Signaling Technology Cat# 2920, RRID : AB_1147620).

The subject of the next series is AXL phosphorylation. The series is described as follows: Western blot of signaling molecules in SNU-5 cells. The format is cell-based, human.
Excerpt: as §1

In another series the test system is ERK phosphorylation. The series is described as follows: Western blot of signaling molecules in SNU-5 cells. In kind it is cell-based, human.
Excerpt: as §1

The test system of a further series is MET phosphorylation. Kind of series: Western blot of signaling molecules in SNU-5 cells. The format is cell-based, human.
Excerpt: as §1

A short description of series [1]: Phase I trial: clinical pharmacokinetics in plasma. The format is in vivo, human. As for the experimental part: A clinical pharmacokinetic study of CT053PTSA was performed for both single doses and multiple doses. Blood samples were collected from each subject at prespecified times before and after single-dose administration (systemic blood samples: before treatment and 0.5, 1, 2, 3, 4, 5, 8, 12, 24, 36, 48, 72, 120 and 168 hours after treatment) and during multiple dosing (cycle 1 before treatment on Days 8, 15 and 22, as well as systemic blood samples on Day 28). […]
Statistical analysis of CT053-treated tumors versus vehicle-treated tumors or versus nontreated tumors was performed by repeated-measures ANOVA. The data from the tumor xenograft models were expressed as the means ± standard error of the mean (SEM) and were plotted as a function of time. Noncompartmental pharmacokinetic analysis was performed using Phoenix WinNonlin Version 6.2.1 (Certara Inc., NJ, USA). Demographics and laboratory results of all the subjects were summarized using descriptive statistics. The pharmacokinetic parameters Tmax and T1/2 were shown as the median (min, max) and mean ± SD, respectively. A two-sided P < 0.05 was considered to indicate statistical significance. Statistical analysis was performed by using GraphPad Prism 5.0 (GraphPad Prism, RRID : SCR_002798) and SPSS software version 19.0 (SPSS, RRID : SCR_002865).

Sequence of Fes (P07332 whole entry): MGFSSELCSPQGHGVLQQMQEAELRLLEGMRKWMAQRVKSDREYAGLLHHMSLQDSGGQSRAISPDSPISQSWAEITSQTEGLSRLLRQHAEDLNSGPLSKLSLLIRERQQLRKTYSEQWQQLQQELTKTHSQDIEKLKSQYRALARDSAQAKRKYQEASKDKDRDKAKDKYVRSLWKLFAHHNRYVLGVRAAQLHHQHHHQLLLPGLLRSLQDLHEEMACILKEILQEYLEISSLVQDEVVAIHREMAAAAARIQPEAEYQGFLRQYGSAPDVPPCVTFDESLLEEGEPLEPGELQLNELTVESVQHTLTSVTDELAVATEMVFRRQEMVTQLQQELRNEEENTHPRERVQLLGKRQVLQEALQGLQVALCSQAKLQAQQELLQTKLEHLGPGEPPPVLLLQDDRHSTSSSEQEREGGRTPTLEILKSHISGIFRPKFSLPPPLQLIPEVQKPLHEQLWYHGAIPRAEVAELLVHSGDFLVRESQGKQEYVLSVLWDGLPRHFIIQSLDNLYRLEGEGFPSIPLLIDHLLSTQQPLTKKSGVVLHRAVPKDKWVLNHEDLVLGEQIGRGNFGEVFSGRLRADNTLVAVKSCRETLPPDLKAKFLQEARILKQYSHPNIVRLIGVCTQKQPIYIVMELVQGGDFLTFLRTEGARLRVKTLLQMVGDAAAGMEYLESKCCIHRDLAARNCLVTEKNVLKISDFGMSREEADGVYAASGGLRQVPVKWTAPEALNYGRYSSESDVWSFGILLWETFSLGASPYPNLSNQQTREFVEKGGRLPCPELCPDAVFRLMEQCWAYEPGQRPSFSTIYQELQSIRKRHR
Sequence of PDGFRα (P16234 24-1089): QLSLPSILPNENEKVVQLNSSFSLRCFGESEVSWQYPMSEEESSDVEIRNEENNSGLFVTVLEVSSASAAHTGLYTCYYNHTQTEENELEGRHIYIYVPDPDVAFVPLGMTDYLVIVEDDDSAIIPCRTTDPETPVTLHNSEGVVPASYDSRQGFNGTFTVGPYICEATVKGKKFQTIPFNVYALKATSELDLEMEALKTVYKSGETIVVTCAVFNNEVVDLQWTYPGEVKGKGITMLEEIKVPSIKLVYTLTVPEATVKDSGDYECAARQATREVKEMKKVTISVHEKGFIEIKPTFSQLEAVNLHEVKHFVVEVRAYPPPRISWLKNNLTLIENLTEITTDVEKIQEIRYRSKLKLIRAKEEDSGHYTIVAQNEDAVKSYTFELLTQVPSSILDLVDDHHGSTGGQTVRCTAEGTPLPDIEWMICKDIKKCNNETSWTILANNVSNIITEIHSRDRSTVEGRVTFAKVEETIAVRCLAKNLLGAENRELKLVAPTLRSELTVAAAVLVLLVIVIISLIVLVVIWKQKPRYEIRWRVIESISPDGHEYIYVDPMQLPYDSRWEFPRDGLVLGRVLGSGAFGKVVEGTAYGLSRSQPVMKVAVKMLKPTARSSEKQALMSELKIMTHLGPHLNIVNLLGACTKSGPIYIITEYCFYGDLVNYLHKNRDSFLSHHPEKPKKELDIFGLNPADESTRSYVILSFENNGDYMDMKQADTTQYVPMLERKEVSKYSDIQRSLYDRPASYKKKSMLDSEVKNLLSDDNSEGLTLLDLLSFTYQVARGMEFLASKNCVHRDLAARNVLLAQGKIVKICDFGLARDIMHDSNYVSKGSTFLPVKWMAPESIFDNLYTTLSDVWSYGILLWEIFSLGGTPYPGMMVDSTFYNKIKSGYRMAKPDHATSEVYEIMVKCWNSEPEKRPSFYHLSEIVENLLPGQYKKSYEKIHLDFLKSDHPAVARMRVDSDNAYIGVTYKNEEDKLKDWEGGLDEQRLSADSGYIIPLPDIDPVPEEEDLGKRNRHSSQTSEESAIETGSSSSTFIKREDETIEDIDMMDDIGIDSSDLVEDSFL
Sequence of Fer (P16591 whole entry): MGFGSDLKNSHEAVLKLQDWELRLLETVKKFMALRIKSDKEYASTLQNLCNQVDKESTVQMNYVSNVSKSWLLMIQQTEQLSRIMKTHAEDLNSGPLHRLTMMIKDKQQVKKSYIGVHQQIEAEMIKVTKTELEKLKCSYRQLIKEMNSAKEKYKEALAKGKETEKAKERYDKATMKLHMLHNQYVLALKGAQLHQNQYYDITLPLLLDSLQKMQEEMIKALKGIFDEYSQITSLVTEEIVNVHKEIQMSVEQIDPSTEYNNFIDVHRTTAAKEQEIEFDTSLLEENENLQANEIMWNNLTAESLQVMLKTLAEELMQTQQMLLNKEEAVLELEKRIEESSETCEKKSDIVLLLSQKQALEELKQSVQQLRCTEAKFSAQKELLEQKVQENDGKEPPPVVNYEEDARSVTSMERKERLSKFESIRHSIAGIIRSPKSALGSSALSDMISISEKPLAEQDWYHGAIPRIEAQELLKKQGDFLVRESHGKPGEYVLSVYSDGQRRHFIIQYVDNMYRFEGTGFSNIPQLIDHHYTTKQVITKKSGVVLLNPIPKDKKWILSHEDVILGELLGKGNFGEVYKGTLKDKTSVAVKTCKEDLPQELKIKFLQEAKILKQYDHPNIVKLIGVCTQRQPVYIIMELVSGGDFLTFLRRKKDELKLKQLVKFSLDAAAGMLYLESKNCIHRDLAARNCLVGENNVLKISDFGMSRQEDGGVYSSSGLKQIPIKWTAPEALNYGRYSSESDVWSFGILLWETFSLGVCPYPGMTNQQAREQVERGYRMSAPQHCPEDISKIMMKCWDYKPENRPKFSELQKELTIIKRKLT
Sequence of Fgr (P09769 whole entry): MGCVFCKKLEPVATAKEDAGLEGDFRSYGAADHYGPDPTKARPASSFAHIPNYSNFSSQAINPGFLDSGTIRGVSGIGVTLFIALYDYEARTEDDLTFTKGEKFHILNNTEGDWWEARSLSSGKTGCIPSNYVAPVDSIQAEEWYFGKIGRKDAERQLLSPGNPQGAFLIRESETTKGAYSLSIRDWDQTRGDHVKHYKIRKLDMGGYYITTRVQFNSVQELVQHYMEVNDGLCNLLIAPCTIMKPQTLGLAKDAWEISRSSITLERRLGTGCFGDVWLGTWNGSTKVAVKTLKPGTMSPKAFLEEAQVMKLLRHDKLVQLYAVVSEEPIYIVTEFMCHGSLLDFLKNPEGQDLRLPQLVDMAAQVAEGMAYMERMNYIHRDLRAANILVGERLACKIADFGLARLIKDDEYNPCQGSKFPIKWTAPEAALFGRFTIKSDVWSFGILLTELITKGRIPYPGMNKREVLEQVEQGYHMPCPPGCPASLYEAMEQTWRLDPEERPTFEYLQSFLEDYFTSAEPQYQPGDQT
Sequence of AXL (P30530 26-894): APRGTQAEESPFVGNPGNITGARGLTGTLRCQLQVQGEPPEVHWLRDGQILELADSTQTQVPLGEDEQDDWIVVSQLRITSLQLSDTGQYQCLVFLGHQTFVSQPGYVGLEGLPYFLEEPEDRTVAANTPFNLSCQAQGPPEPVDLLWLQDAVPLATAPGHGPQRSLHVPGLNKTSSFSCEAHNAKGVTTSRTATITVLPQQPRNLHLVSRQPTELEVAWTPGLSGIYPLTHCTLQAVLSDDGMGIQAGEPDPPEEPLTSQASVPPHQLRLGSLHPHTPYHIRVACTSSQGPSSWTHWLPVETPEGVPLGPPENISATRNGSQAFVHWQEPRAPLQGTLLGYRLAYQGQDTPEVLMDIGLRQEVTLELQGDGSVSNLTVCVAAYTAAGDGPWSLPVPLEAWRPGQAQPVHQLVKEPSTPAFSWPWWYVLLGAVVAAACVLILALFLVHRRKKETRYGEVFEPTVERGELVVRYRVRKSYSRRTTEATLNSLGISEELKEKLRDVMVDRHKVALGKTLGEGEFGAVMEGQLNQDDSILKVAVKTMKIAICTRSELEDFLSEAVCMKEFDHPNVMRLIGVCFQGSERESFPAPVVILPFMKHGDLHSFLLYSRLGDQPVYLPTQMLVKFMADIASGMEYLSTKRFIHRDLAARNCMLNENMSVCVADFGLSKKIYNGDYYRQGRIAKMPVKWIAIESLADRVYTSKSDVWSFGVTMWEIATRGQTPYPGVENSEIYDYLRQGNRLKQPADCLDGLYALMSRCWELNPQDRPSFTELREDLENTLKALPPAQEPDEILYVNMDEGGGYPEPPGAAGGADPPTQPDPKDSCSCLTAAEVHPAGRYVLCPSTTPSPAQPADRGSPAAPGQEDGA
Description for Fes: (§2) The IC50 values were determined by measuring phosphorylation of peptide substrate poly at ATP concentrations at the Km.
Description for Fgr: as §2
Description for HS746T: Human gastric tumor cell lines with high MET expression levels, namely, the GTL-16, MKN45, SNU638, Hs746T, SNU-620, and SNU-5 cell lines, were used in the assay. These cell lines were obtained from American Type Culture Collection (ATCC), Japanese Collection of Research Bioresources (JCRB), Shanghai Institutes of Biological Sciences, CAS (SIBS), Korean Cell Line Bank (KCLB) or National Institutes of Health (NIH). […] Cell viability was measured after 72 hours using a CellTiter-Glo Luminescent Cell Viability Assay Kit (Promega, WI, USA) according to the manufacturer’s instructions.
Description for PDGFRα: as §2

On to `Cc1c(C(=O)Nc2ccc(Oc3ccnc4cc(OCC(C)(C)O)ccc34)c(F)c2)c(=O)n(-c2ccccc2)n1C` [CT053], for which the IC50 against Fes came out at 48 nM; at Fer, 330 nM; at Fgr, 77 nM; on PDGFRα, 390 nM; at AXL it was 0.44 nM; in the series with HS746T, 140 nM. For the same molecule, in the series with MKN74, the IC50 came out at 6880 nM. Also, in the series with AKT phosphorylation, the “suppression of induced AKT activity” value is reported as “a much higher concentration of CT053 was required”. In addition, the “concentration that completely suppressed AXL phosphorylation” value in the series on AXL phosphorylation turned out to be 100 nM. Further, the “concentration that completely suppressed phosphorylation of ERK” value in the series on ERK phosphorylation was 1000 nM. Further, in the series on MET phosphorylation, the “concentration that completely suppressed phosphorylation of MET” value was 1000 nM. In addition, the “PK profile versus dose” value in series [1] (multiple doses, 60-100 mg) is “linear PK profile”; in [1] (single oral dose, 15 to 150 mg), “general linear PK profile”.

The record behind these values is PMC9632963, “Preclinical characterization and phase I clinical trial of CT053PTSA targets MET, AXL, and VEGFR2 in patients with advanced solid tumors” (Frontiers in Immunology, 2022).
